Measured values from PubChem BioAssay AID330 (DTP/NCI, 2004).
Values joined by “and” are separate entries in the source; they are usually repeats but may differ in a detail not shown here. Equal values may be shown once. Toxic doses and inconclusive results are not listed. The calls were made as follows: active = survival T/C of 150% or more; inactive = T/C below 125% in these data.

Test system: P388 leukemia ip, CD2F1 mice, survival T/C
Test: NCI In Vivo Anticancer Drug Screen. Data for tumor model P388 Leukemia (intraperitoneal) in CD2F1 (CDF1) mice
Details: endpoint: median survival time, higher = longer survival
In short: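 Mice carrying the transplanted tumor received test compound or vehicle. Survival was recorded in each group, and the value is the treated-group measurement divided by that of the vehicle-treated control group.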

[1] = dose: 25.0 mg/kg/injection, schedule: Q01DX009 (ip), vehicle: saline with Tween-80
[2] = dose: 50.0 mg/kg/injection, schedule: Q01DX009 (ip), vehicle: saline with Tween-80
[3] = dose: 100.0 mg/kg/injection, schedule: Q01DX009 (ip), vehicle: saline with Tween-80
[4] = dose: 200.0 mg/kg/injection, schedule: Q01DX009 (ip), vehicle: saline with Tween-80
[5] = dose: 12.5 mg/kg/injection, schedule: Q01DX005 (ip), vehicle: Klucel (hydroxypropylcellulose) (HPC)
[6] = dose: 25.0 mg/kg/injection, schedule: Q01DX005 (ip), vehicle: Klucel (hydroxypropylcellulose) (HPC)
[7] = dose: 100.0 mg/kg/injection, schedule: Q01DX001 (ip), vehicle: Klucel (hydroxypropylcellulose) (HPC)
[8] = dose: 50.0 mg/kg/injection, schedule: Q01DX005 (ip), vehicle: Klucel (hydroxypropylcellulose) (HPC)
[9] = dose: 100.0 mg/kg/injection, schedule: Q01DX005 (ip), vehicle: Klucel (hydroxypropylcellulose) (HPC)
[10] = dose: 200.0 mg/kg/injection, schedule: Q01DX005 (ip), vehicle: Klucel (hydroxypropylcellulose) (HPC)
[11] = dose: 50.0 mg/kg/injection, schedule: Q01DX009 (ip), vehicle: saline
[12] = dose: 50.0 mg/kg/injection, schedule: Q01DX009 (ip), vehicle: Klucel (hydroxypropylcellulose) (HPC)
[13] = dose: 100.0 mg/kg/injection, schedule: Q01DX009 (ip), vehicle: Klucel (hydroxypropylcellulose) (HPC)
[14] = dose: 200.0 mg/kg/injection, schedule: Q01DX009 (ip), vehicle: Klucel (hydroxypropylcellulose) (HPC)
[15] = dose: 60.0 mg/kg/injection, schedule: Q01DX005 (ip), vehicle: saline with Tween-80
[16] = dose: 120.0 mg/kg/injection, schedule: Q01DX005 (ip), vehicle: saline with Tween-80
[17] = dose: 240.0 mg/kg/injection, schedule: Q01DX005 (ip), vehicle: saline with Tween-80

Measured: T/C

O=C(CC(=O)C(F)(F)F)c1cc2ccccc2s1
inactive: [1] 113 % of control | [2] 96 % of control | [3] 115 % of control

CCOC(=O)NC(C)(C)CN(C(=O)OCC)c1ccccc1
inactive: [3] 94 % of control | [4] 116 % of control | dose: 200.0 mg/kg/injection, schedule: Q04DX003 (ip), vehicle: saline with Tween-80 95 % of control | dose: 400.0 mg/kg/injection, schedule: Q01DX009 (ip), vehicle: saline with Tween-80 116 % of control | dose: 400.0 mg/kg/injection, schedule: Q04DX003 (ip), vehicle: saline with Tween-80 104 % of control

O=C(O)CCCSC1=CC(=O)c2ccccc2C1=O
inactive: dose: 1.56 mg/kg/injection, schedule: Q04DX003 (ip), vehicle: DMSO 89 % of control | dose: 3.12 mg/kg/injection, schedule: Q04DX003 (ip), vehicle: DMSO 96 % of control | dose: 6.25 mg/kg/injection, schedule: Q04DX003 (ip), vehicle: DMSO 100 % of control and 93 % of control | dose: 12.5 mg/kg/injection, schedule: Q04DX003 (ip), vehicle: DMSO 100 % of control

O=C(NCCCl)Oc1cc(Cl)c(Cl)cc1Cl
inactive: [5] 120 % of control | [6] 111 % of control | [7] 102 % of control

CCCCOc1ccc(-n2c(=O)[nH]c3ccccc3c2=O)cc1
inactive: [8] 96 % of control | [9] 100 % of control | [10] 96 % of control

O=[N+]([O-])c1ccc(O)c([N+](=O)[O-])c1
inactive: dose: 1.0 mg/kg/injection, schedule: Q01DX005 (ip), vehicle: saline with Tween-80 96 % of control | dose: 2.0 mg/kg/injection, schedule: Q01DX005 (ip), vehicle: saline with Tween-80 108 % of control | dose: 4.0 mg/kg/injection, schedule: Q01DX005 (ip), vehicle: saline with Tween-80 106 % of control | dose: 6.25 mg/kg/injection, schedule: Q01DX009 (ip), vehicle: saline with Tween-80 100 % of control | dose: 8.0 mg/kg/injection, schedule: Q01DX005 (ip), vehicle: saline with Tween-80 104 % of control | dose: 12.5 mg/kg/injection, schedule: Q01DX009 (ip), vehicle: saline with Tween-80 100 % of control | dose: 16.0 mg/kg/injection, schedule: Q01DX005 (ip), vehicle: saline with Tween-80 103 % of control | [1] 90 % of control | dose: 25.0 mg/kg/injection, schedule: Q04DX003 (ip), vehicle: saline with Tween-80 90 % of control | dose: 32.0 mg/kg/injection, schedule: Q01DX005 (ip), vehicle: saline with Tween-80 102 % of control

Clc1c(Cl)c(Cl)c(C[n+]2ccccc2)c(Cl)c1Cl
inactive: dose: 6.25 mg/kg/injection, schedule: Q01DX009 (ip), vehicle: saline 105 % of control | dose: 12.5 mg/kg/injection, schedule: Q01DX009 (ip), vehicle: saline 98 % of control | dose: 25.0 mg/kg/injection, schedule: Q01DX009 (ip), vehicle: saline 102 % of control | [11] 99 % of control

CCCCCCCCCCCCCCCCOc1ccc(S(=O)(=O)Nc2ccc(N)cc2O)cc1
inactive: [12] 110 % of control | [13] 94 % of control | [14] 112 % of control

CSC(=S)C(CNc1ncccn1)c1ccccc1 (stereo not given)
inactive: dose: 60.0 mg/kg/injection, schedule: Q01DX005 (ip), vehicle: Klucel + Tween-80 89 % of control | dose: 120.0 mg/kg/injection, schedule: Q01DX005 (ip), vehicle: Klucel + Tween-80 89 % of control

CC(C)=CCc1c2c(c(O)c3c(=O)c(-c4ccc(O)cc4O)coc13)C=CC(C)(C)O2
inactive: [1] 104 % of control | [2] 102 % of control | [3] 104 % of control | [4] 99 % of control

CC(=O)C1SCC[S+]1C (stereo not given)
inactive: dose: 15.0 mg/kg/injection, schedule: Q01DX005 (ip), vehicle: saline 102 % of control | dose: 30.0 mg/kg/injection, schedule: Q01DX005 (ip), vehicle: saline 102 % of control | dose: 60.0 mg/kg/injection, schedule: Q01DX005 (ip), vehicle: saline 99 % of control and 106 % of control and 114 % of control

CC[C@]12CCCN3CCc4c(n(c5ccccc45)C(=O)C1)[C@@H]32
inactive: [12] 95 % of control | [13] 107 % of control | [14] 91 % of control

CC1(C)CC(N=[N+]=[N-])CC(C)(C)N1O
inactive: dose: 100.0 mg/kg/injection, schedule: Q04DX003 (ip), vehicle: Klucel (hydroxypropylcellulose) (HPC) 100 % of control

O=C1CC(C2(c3ccccc3)SCCCS2)CO1 (stereo not given)
inactive: [7] 99 % of control | dose: 200.0 mg/kg/injection, schedule: Q01DX001 (ip), vehicle: Klucel (hydroxypropylcellulose) (HPC) 98 % of control | dose: 400.0 mg/kg/injection, schedule: Q01DX001 (ip), vehicle: Klucel (hydroxypropylcellulose) (HPC) 100 % of control

COc1cc(N2C(=O)C(=O)C(C(C)=O)C2=O)c(OC)cc1Cl (stereo not given)
inactive: [12] 100 % of control | [13] 99 % of control | [14] 100 % of control

Nc1ncnc2c1ncn2C1SC(CO)C(O)C1O (stereo not given)
inactive: [5] 92 % of control | [6] 100 % of control and 92 % of control | [8] 99 % of control and 96 % of control | [9] 104 % of control and 100 % of control | [10] 101 % of control and 92 % of control

CCC[CH2][Ge]([CH2]CCC)([CH2]CCC)[S][Ge]([CH2]CCC)([CH2]CCC)[CH2]CCC
inactive: [11] 91 % of control | dose: 100.0 mg/kg/injection, schedule: Q01DX009 (ip), vehicle: saline 92 % of control | dose: 200.0 mg/kg/injection, schedule: Q01DX009 (ip), vehicle: saline 97 % of control

c1ccc(-c2cnnc3c4ccccc4nn23)cc1
inactive: [8] 97 % of control | [9] 96 % of control | [10] 91 % of control

C[C@@]12CCCC[C@@H]1N(CCN1CCCCC1)c1ccccc12
inactive: [15] 95 % of control | [16] 105 % of control | [17] 98 % of control

CC1C(=O)OC2CC[N+]3(C(=O)C(F)(F)F)CC4OC4(COC(=O)C(C)(O)C1(C)O)C23 (stereo not given)
inactive: dose: 60.0 mg/kg/injection, schedule: Q01DX005 (ip), vehicle: suspension in saline 104 % of control | dose: 120.0 mg/kg/injection, schedule: Q01DX005 (ip), vehicle: suspension in saline 93 % of control | dose: 240.0 mg/kg/injection, schedule: Q01DX005 (ip), vehicle: suspension in saline 92 % of control

CCOC(=O)/C(C#N)=C/Nc1[nH]c(=O)c(C#N)c(-c2ccc(Cl)cc2)c1SC
inactive: [15] 110 % of control | [16] 100 % of control | [17] 108 % of control

O=[N+]([O-])c1ccc(N=C/C=C\Nc2ccc([N+](=O)[O-])cc2)cc1
inactive: dose: 60.0 mg/kg/injection, schedule: Q01DX005 (ip), vehicle: Klucel (hydroxypropylcellulose) (HPC) 87 % of control | dose: 120.0 mg/kg/injection, schedule: Q01DX005 (ip), vehicle: Klucel (hydroxypropylcellulose) (HPC) 93 % of control | dose: 240.0 mg/kg/injection, schedule: Q01DX005 (ip), vehicle: Klucel (hydroxypropylcellulose) (HPC) 104 % of control

CNC(=O)CC(C(=O)O)N(C)C (stereo not given)
inactive: dose: 50.0 mg/kg/injection, schedule: Q01DX009 (ip), vehicle: water 98 % of control | dose: 100.0 mg/kg/injection, schedule: Q01DX009 (ip), vehicle: water 106 % of control | dose: 200.0 mg/kg/injection, schedule: Q01DX009 (ip), vehicle: water 107 % of control
